Reference: patent publication US10738119B2, “Combination therapy for hepatocellular carcinoma” (Health Research, Inc., priority 2014, dated 2020)
Entries after “also recorded” stand apart in the source; their conditions may differ.

Columns and labels:
Type in all cases: in vivo, human
[1] = system: CD11b+CD33+ MDSC; experiment: Multi-parametric flow cytometry of MDSC in PBMC of HCC patients pre and post sorafenib treatment; conditions: pre vs post sorafenib
Method: MDSC in the peripheral blood were detected using FITC anti-CD11b (eBioscience), PE-Cy5 anti-CD33, APC anti-CD14, V450 anti-HLA-DR (BD Biosciences).
(§1) Plasma levels of both pro-inflammatory and immunosuppressive cytokines were determined by ELISA.
(§2) This study was approved by institutional review board of Roswell Park Cancer Institute (RPCI), Buffalo, N.Y. and informed consent was obtained from all participants. Heparinized peripheral blood samples were obtained from HCC patients before the initiation of sorafenib treatment and after four weeks or more of oral sorafenib treatment, through Data Bank and Biorepository at RPCI.
(§3) PBMCs were isolated immediately by Ficoll-Paque Plus density gradient centrifugation and cryopreserved. Plasma was isolated and stored at −80° C. and used for measurement of immunosuppressive and immunostimulatory cytokines as described previously. Frequency, phenotype and functionality of immune cells after blocking immune check points were analyzed by multi-parameter flow cytometry.

[2] = system: HCC patients; experiment: PD-1 status and survival of HCC patients treated with sorafenib (Example 2)
Source text: The individual data points in the figures represent each patient.

[3] = system: PD-1+ T cells; experiment: Multi-parametric flow cytometry of PD-1+ T cells in PBMC of HCC patients pre and post sorafenib treatment; conditions: pre vs post sorafenib
Method: (§4) FACS analysis was performed to measure peripheral blood Treg frequency using APC-H7 anti-CD3, V450 anti-CD4, PE anti-CD127, PE-Cy5 anti-CTLA-4 (BD Biosciences) and PE-Cy7 anti-PD-1, Alexa488 anti-Foxp3 (Biolegend). Detection of surface GARP levels was achieved by using mouse anti-human GARP (Enzo Life Sciences) followed by staining with PE F(ab′)2 goat anti-mouse IgG (Jackson ImmunoResearch Laboratories). Cells were incubated with normal mouse IgG for 10 min prior to surface and intracellular staining. Intracellular analysis for Foxp3 and CTLA-4 was performed after fixation and permeabilization of cells using intracellular staining kit (eBioscience) according to manufacturer's instructions. All samples were acquired on LSRII flow cytometer (BD Biosciences) and analyzed using Flowjo Model Fit (Tree Star).
as §1
This study was approved by institutional review board of Roswell Park Cancer Institute (RPCI), Buffalo, N.Y. and informed consent was obtained from all participants.
as §3

[4] = system: IL-1β; experiment: Plasma cytokine ELISA pre and post sorafenib treatment: IL-1β; conditions: pre vs post sorafenib, P<0.11, FIG. 17A
Method: (§5) Plasma isolated during PBMC separation was assayed to quantify the level of IFN-γ, IL-10, and TGF-β1 using specific ELISA kits according to the manufacturer's instructions (eBioscience).
as §1, §2, §3

[5] = system: HCC patients; experiment: Overall survival of HCC patients stratified by greater or smaller decrease in immune parameters after sorafenib treatment
Method: FIGS. 15A-15D. […] Overall survival of patients was calculated based on the status of (FIG. 15A) absolute numbers of CD4^+PD-1^+ T cells (FIG. 15B) CD8^+PD-1^+ T cells (FIG. 15C) expression levels of PD-1 (MFI) on CD8^+ T cells (FIG. 15D) absolute numbers of CD4^+Foxp3^+ T cells.
FIGS. 18A-18R. […] Overall survival of patients was calculated based on the status of (FIG. 18A) frequency of CD4^+Foxp3^+ Tregs (FIG. 18B) frequency of GARP^+Foxp3^+ Tregs (FIG. 18C) expression levels of GARP (MFI) on Foxp3^+ Tregs (FIG. 18D) frequency of CTLA-4^+Foxp3^+ Tregs (FIG. 18E) absolute number of CD4^+Foxp3^+ Tregs (FIG. 18F) expression levels of CTLA-4 (MFI) on Foxp3^+ Tregs (FIG. 18G) frequency of CD11b^+CD33^+ MDSC (FIG. 18H) absolute number of CD11b^+CD33^+ MDSC (FIG. 18I) frequency of CD4^+PD-1^+ T cells (FIG. 18J) expression levels of PD-1 (MFI) on CD4^+ T cells (FIG. 18K) frequency of Foxp3^+PD-1^+ T cells (FIG. 18L) absolute number of Foxp3^+PD-1^+ T cells (FIG. 18M) expression levels of PD-1 (MFI) on Foxp3^+CD4^+ T cells (FIG. 18N) frequency of CD8^+PD-1^+ T cells (FIG. 18O) IL-10 (FIG. 18P) TGF-β1 (FIG. 18Q) IFN-γ (FIG. 18R) IL-1β.
as §1, §2

[6] = system: IFN-γ; experiment: Plasma cytokine ELISA pre and post sorafenib treatment: IFN-γ; conditions: pre vs post sorafenib
Method: as §5, §1, §2, §3

[7] = system: TGF-β1; experiment: Plasma cytokine ELISA pre and post sorafenib treatment: TGF-β1; conditions: pre vs post sorafenib
Method: as §5, §1, §2, §3

[8] = system: Foxp3+ Tregs; experiment: Multi-parametric flow cytometry of Tregs in PBMC of HCC patients pre and post sorafenib treatment; conditions: pre vs post sorafenib
Method: as §4, §1, §2, §3

[9] = system: IL-10; experiment: Plasma cytokine ELISA pre and post sorafenib treatment: IL-10; conditions: pre vs post sorafenib
Method: as §5, §1, §2, §3

[10] = system: HCC patients; experiment: Overall survival of HCC patients stratified by greater or smaller decrease in immune parameters after sorafenib treatment; conditions: log-rank P<0.30, FIG. 18E

## CNC(=O)c1cc(Oc2ccc(NC(=O)Nc3ccc(Cl)c(C(F)(F)F)c3)cc2)ccn1 [sorafenib]
[1]; P<0.61, FIG. 16E
  frequency of CD11b+CD33+ MDSC after sorafenib treatment: did not significantly impact; also recorded: did not have any significant influence
[1]; P<0.92, FIG. 16F
  absolute number of CD11b+CD33+ MDSC after sorafenib treatment: did not significantly impact; also recorded: did not have any significant influence
[2]; group where PD-1 was decreased
  mean survival time: 688 days
[2]; group which did not show a decrease in PD-1
  mean survival: 168 days
[3]; FIG. 14B
  95% CI of change in expression levels (MFI) of PD-1 on CD4+ T cells after sorafenib treatment: −56.51 to −12.09 MFI
[3]; P<0.02, FIG. 14B
  expression levels (MFI) of PD-1 on CD4+ T cells after sorafenib treatment: significantly decreased
[3]; P<0.04, FIG. 14C
  absolute number of CD4+Foxp3+PD-1+ T cells after sorafenib treatment: significantly decreased
[3]; P<0.15, FIG. 14E
  absolute number of CD8+PD-1+ T cells after sorafenib treatment: did not show any significant decrease
[3]; P<0.20, FIG. 14D
  frequency of CD8+PD-1+ T cells after sorafenib treatment: did not show any significant decrease
[3]; P<0.31, FIG. 14F
  level of expression of PD-1 on CD8+ T cells (MFI) after sorafenib treatment: did not show any significant decrease
[3]; n=19, P<0.01, FIG. 14A
  frequency of CD4+PD-1+ T cell after sorafenib treatment: significantly reduced
[4]
  plasma levels of IL-1β after sorafenib treatment: did not show any significant decrease
[5]; AFT models, AFT β P<0.04
  overall survival, greater decrease in PD-1 expression levels on CD4+ T cells after sorafenib: better overall survival benefit
[5]; AFT models, AFT β P<0.05
  overall survival, greater decrease in absolute number of MDSC after sorafenib: better prognosis; also recorded: significant correlation with overall survival
  overall survival, greater decrease in percentage of MDSC after sorafenib: better prognosis; also recorded: significant correlation with overall survival
[5]; log-rank P<0.01, FIG. 15D
  overall survival vs absolute numbers of Foxp3+ Tregs post-sorafenib treatment: statistically significant improvement in overall survival; also recorded: significant correlation with overall survival
[5]; log-rank P<0.04, FIG. 15A
  overall survival, greater vs smaller decrease in absolute number of PD-1+CD4+ T cells after sorafenib: significant interaction term; also recorded: significantly improved overall survival rate
[5]; log-rank P<0.04, FIG. 15B
  overall survival, greater vs smaller decrease in absolute number of CD8+PD-1+ T cells after sorafenib: significant interaction term; also recorded: significant improvement in overall survival
[5]; log-rank P<0.04, FIG. 15C
  overall survival, greater vs smaller decrease in PD-1 expression levels on CD8+ T cells after sorafenib: significant improvement in overall survival
[5]; log-rank P<0.51, FIG. 18D
  overall survival, greater vs smaller decrease in frequency of CTLA-4+ Tregs after sorafenib: no significant differences in the overall survival
[5]; log-rank P<0.61, FIG. 18P
  overall survival vs changes in levels of TGF-β1 after sorafenib: none of these cytokines showed any significant association; also recorded: non-significant interaction term
[5]; log-rank P<0.62, FIG. 18Q
  overall survival vs changes in levels of IFN-γ after sorafenib: none of these cytokines showed any significant association; also recorded: non-significant interaction term
[5]; log-rank P<0.73, FIG. 18O
  overall survival vs changes in levels of IL-10 after sorafenib: none of these cytokines showed any significant association; also recorded: non-significant interaction term
[5]; log-rank P<0.92, FIG. 18R
  overall survival vs changes in levels of IL-1β after sorafenib: non-significant interaction term
[6]; FIG. 17D
  95% CI of change in levels of IFN-γ after sorafenib treatment: −1.07 to 23.64
[6]; P<0.04, FIG. 17D
  plasma levels of IFN-γ after sorafenib treatment: concomitant increase; also recorded: significantly increased
[7]; FIG. 17C
  95% CI of change in levels of TGF-β1 after sorafenib treatment: −151.50 to −48.55
[7]; P<0.03, FIG. 17C
  plasma levels of TGF-β1 after sorafenib treatment: significant decrease
[8]; FIG. 16A
  95% CI of change in frequency of CD3+CD4+Foxp3+ Tregs after sorafenib treatment: −0.44 to −1.16
[8]; FIG. 16B
  95% CI of change in absolute numbers of CD3+CD4+Foxp3+ Tregs after sorafenib treatment: −9.48 to −3.55
[8]; FIG. 16C
  95% CI of change in frequency of Foxp3+CTLA-4+ Tregs after sorafenib treatment: −3.18 to −0.82
[8]; FIG. 16D
  95% CI of change in absolute number of Foxp3+CTLA-4+ Tregs after sorafenib treatment: −8.42 to −6.32
[8]; P<0.02, FIG. 16A
  frequency of CD3+CD4+Foxp3+ Tregs after sorafenib treatment: significant decrease
[8]; P<0.02, FIG. 16C
  frequency of Foxp3+CTLA-4+ Tregs after sorafenib treatment: Marked reduction
[8]; P<0.05, FIG. 16B
  absolute numbers of CD3+CD4+Foxp3+ Tregs after sorafenib treatment: significant decrease
[8]; P<0.05, FIG. 16D
  absolute number of Foxp3+CTLA-4+ Tregs after sorafenib treatment: Marked reduction
[9]; FIG. 17B
  95% CI of change in levels of IL-10 after sorafenib treatment: −63.30 to −4.9
[9]; P<0.03, FIG. 17B
  plasma levels of IL-10 after sorafenib treatment: significant decrease
[10]
  overall survival, greater vs smaller decrease in absolute number of CTLA-4+ Tregs after sorafenib: no significant differences in the overall survival
